Reference: US5428058A, “Phospholipase A2 inhibitors” (American Home Products Corporation, priority 1994, dated 1995)
“And” between values parts separate entries of the source, which are not always exact repeats. Identical values can stand only once.

Tests used:
5-lipoxygenase = biological target: T1, 5-lipoxygenase (Mus musculus, UniProt P48999); assay: 5-lipoxygenase inhibition (LTC4 production) in resident murine peritoneal macrophages; type: cell-based, mouse (Swiss Webster)
T1 construct: Resident peritoneal macrophages were collected from female Swiss Webster mice; endogenous in cells; host or cells: resident peritoneal macrophages of female Swiss Webster mice
T1 sequence (P48999 1-674): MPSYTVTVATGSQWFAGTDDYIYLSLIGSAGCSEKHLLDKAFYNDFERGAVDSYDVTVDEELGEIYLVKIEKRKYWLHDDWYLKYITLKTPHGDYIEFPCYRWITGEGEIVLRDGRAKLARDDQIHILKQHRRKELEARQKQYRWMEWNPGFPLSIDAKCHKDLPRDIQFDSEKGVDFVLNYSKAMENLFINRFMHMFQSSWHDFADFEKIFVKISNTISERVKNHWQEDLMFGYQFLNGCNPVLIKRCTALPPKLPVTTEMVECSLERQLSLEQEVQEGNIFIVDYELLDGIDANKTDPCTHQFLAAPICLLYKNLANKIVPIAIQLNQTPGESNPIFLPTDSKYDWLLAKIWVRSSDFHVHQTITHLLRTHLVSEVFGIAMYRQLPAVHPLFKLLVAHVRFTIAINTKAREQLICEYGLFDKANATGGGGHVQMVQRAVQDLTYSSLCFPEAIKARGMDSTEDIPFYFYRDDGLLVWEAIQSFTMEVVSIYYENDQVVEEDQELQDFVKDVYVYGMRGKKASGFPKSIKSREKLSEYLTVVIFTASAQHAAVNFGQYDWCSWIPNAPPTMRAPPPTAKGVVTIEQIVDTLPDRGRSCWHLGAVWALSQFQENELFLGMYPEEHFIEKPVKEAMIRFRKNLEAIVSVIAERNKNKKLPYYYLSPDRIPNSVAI
Protocol: (§1) The ability of the compounds of the invention to act as inhibitors of the enzymes 5-lipoxygenase and cyclooxygenase was evaluated in the resident murine peritoneal macrophage standard pharmacological test procedure. This test procedure was carried out as follows.
(§2) Resident peritoneal macrophages were collected from female Swiss Webster mice (49 days old, 20-25 gms, Buckshire) by lavaging with 7-8 ml Hanks Balanced Salt Solution (HBSS) without Ca^++ and Mg^++ (GIBCO). The lavage fluid from several mice was pooled and centrifuged at 4° C. for 10 minutes at 400 xg. The cell pellet was resuspended in Medium 199 (GIBCO) with HEPES buffer containing 100 μg/ml gentamicin. Two ml of the cell suspension (4×10^6 cells) were then plated on 35 mm culture dishes (Nunc).
A macrophage monolayer was established after a 1-1.5 hour incubation of the cells at 37° C. in an atmosphere of […] and 5% CO2. The monolayers were washed 2× with 2 ml HBDSS, containing Ca^++ and Mg^++ after which 2 ml Medium 199 supplemented with 10% freshly thawed heat-inactivated fetal bovine serum and 100 μg/ml gentamicin was added for an overnight incubation.
Residual serum and cellular debris were removed from the monolayers by washing 3× with 2 ml HBSS containing Ca^++ and Mg^++. Macrophages were preincubated for 5 minutes with 1 ml serum-free M199 containing 10 μl dimethyl sulfoxide (DMSO) vehicle or test compound prior to cell activation with zymosan ([…]) or arachidonic acid (AA) (2 μM). After 2 hours, the supernatants were removed and either assayed for LTC4 and PGE2 by radioimmunoassay (RIA) directly or stored at -20° C. In all cases, results are expressed as ng metabolite/4×10^6 cells.
Calculations: The raw data were converted to ng metabolite/4-10^6 cells using a standard curve. Results were then expressed as percent inhibition of zymosan induced, leukotriene or prostaglandin synthesis (control) using the following equation: [formula] REFERENCE COMPOUNDS: The compounds used are listed below.

cyclooxygenase = cyclooxygenase inhibition (PGE2 production) in resident murine peritoneal macrophages; type: cell-based, mouse (Swiss Webster); settings: dose 0.5 μM; mouse macrophages, zymosan induced
Protocol: as §1, §2
A macrophage monolayer was established after a 1-1.5 hour incubation of the cells at 37° C. in an atmosphere of […] and 5% CO2. […]
Residual serum and cellular debris were removed from the monolayers by washing 3× with 2 ml HBSS containing Ca^++ and Mg^++. […] In all cases, results are expressed as ng metabolite/4×10^6 cells.
Calculations: The raw data were converted to ng metabolite/4-10^6 cells using a standard curve. Results were then expressed as percent inhibition of zymosan induced, leukotriene or prostaglandin synthesis (control) using the following equation: [formula] […]

[1] = system: tetradecanoylphorbol acetate (TPA) induced ear edema; assay: tetradecanoylphorbol acetate (TPA) induced ear edema in mice; type: in vivo, mouse (Webster); set-up: activity in TPA ear edema test: dose or concentration left out as unconfirmed; settings: for Percent Inhibition TPA Ear Edema: 30 min after TPA, measured 4 hrs after TPA
Protocol: Representative compounds of this invention were evaluated in an in vivo standard pharmacological test procedure that measured the effect of the representative compounds on dermal inflammation, as measured by the prevention of tetradecanoylphorbol acetate (TPA) induced car edema in Webster mice. This test procedure was carried out as follows.
Mice were placed into plastic boxes in groups of six. Eight groups of mice received TPA topically on the right ear. TPA was dissolved in acetone at a concentration of 100 ug/ml. TPA was applied to the right ear by the means of an automatic pipette. Volumes of 10 ul were applied to the inner and outer surfaces of the ear. Each mouse received 2 ug/ear TPA. The left ear (control) received acetone delivered in the same manner. The compounds to be evaluated were given orally 30 min after treatment with TPA.
Measurements were taken with Oditest calipers, 0-10 mm with 0.01 graduations. The right and left cars were measured 4 hrs after TPA-induced inflammation.
The difference between right and left car thickness was calculated and the significance was determined by a one way analysis of variance with Dunnet's comparisons to control (P=0.05). Drug effects are expressed as a percent change from control values according to the following formula. [formula]

[2] = mouse macrophages, zymosan induced
[3] = dose 0.1 μM, mouse macrophages, zymosan induced

Row | Structure (SMILES) | inhibition at 0.5 µM (5-lipoxygenase; [2]) [%] | PGE2 % Inhibition (cyclooxygenase) | Percent Inhibition TPA Ear Edema ([1]; 80 mg/kg p.o.) [%] | Percent Inhibition TPA Ear Edema ([1]; 160 mg/kg p.o.) [%] | also measured
1 | NC1=NN(c2cccc(C(F)(F)F)c2)CC1 [BW 755c, reference compound] |  |  |  |  | ED50 ([1]; Mus musculus, 4 h, oral, TPA-induced ear edema, mice): 88 mg/kg
2 | CCCCCC#CCC#CCC#CCC#CCCCC(=O)O [ETYA, reference compound] |  |  |  |  | IC50 (5-lipoxygenase): 440 nM
3 | COc1ccc2c(c1)c(CC(=O)O)c(C)n2C(=O)c1ccc(Cl)cc1 [Indomethacin, reference compound] |  |  |  |  | activity in TPA ear edema test [1]: inactive

The next lines start with results.

Row | inhibition at 0.5 µM (5-lipoxygenase; [2]) [%] | Structure (SMILES) | PGE2 % Inhibition (cyclooxygenase) | Percent Inhibition TPA Ear Edema ([1]; 80 mg/kg p.o.) [%] | Percent Inhibition TPA Ear Edema ([1]; 160 mg/kg p.o.) [%] | also measured
4 | 59 | O=C(CC[C@@H]1CC[C@H]2CCCC[C@@H]2C1)C1=C(O)COC1=O (relative stereo) [Example 1, 3-[3-[(2α,4aα,8aβ)-Decahydro-naphthalene-2-yl]-propionyl]-4-hydroxy-2-(5H) -furanone] | 54% | 19 | 49 | 
5 | 92 | O=C(CC[C@@H]1CC[C@H]2CCCC[C@@H]2C1)C1=C(O)CSC1=O (relative stereo) [Example 2, 3-[3-[(2α,4aα,8aβ)-Decahydro-naphthalene-2-yl]-propionyl]-4-hydroxy-2-(5H)thiophenone] | 80% and 85% | 21 | 66 | LTC4 % Inhibition (5-lipoxygenase; [3]): 37%; inhibition at 0.1 µM (5-lipoxygenase; [3]): 43%
